In one data set the target is T1, GAL-L-hRXRa (Homo sapiens, UniProt P19793).
T1 sequence (P19793 203-462): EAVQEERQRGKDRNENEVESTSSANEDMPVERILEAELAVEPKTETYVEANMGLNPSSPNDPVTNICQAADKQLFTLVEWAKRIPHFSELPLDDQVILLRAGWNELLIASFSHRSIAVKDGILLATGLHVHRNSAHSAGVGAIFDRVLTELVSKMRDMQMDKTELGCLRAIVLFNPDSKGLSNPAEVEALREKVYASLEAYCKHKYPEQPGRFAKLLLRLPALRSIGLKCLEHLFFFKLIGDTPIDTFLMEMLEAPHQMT
In words: Co-transfection luciferase assay, MH100 × 4 reporter, GAL-L-hRXRa alone. The settings on record: 50 μM CDCA.

A further data set has as its target T2, BAR-RXRα complex (UniProt P19793+Q62735).
T2 sequence (Q62735 1-469): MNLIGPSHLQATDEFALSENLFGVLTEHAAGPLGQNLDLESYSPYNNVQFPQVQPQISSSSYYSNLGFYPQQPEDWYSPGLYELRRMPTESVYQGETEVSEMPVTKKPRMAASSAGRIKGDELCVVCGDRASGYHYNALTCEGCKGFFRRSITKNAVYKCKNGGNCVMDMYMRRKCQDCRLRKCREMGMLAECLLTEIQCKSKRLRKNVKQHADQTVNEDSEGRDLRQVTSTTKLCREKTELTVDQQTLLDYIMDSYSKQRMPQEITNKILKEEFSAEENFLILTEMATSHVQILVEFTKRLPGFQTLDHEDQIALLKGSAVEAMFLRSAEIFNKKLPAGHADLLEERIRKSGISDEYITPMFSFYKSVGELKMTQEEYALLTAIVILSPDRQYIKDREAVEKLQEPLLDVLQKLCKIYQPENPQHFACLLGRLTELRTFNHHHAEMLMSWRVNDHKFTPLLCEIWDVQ
T2 sequence (P19793 1-462): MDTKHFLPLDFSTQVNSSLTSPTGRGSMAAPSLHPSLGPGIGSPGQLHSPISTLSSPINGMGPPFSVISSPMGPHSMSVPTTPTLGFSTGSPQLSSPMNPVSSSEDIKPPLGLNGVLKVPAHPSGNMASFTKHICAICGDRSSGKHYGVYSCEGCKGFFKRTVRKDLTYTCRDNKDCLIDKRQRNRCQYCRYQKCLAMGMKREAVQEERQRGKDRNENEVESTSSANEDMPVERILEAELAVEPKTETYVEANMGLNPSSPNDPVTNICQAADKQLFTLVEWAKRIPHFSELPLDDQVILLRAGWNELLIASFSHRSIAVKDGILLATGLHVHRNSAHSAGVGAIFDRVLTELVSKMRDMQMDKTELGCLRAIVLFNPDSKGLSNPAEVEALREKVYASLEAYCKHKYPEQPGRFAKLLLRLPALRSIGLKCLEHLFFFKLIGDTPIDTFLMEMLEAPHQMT
The settings on record: cited from earlier work.

The subject of data set [1] is other nuclear hormone receptors. The settings on record: cited from earlier work.
Data set [2] addresses BAR/FXR:RXR heterodimer (CV-1 cells) (/ Homo sapiens, UniProt Q62735;P19793 SEQ:1-469,SEQ:1-462). In words: cell_activity; CV-1, 100 uM CDCA; text gives IBABP IR-1 reporter, FIG. 1A legend gives EcREx6. The settings on record: label: 32P (gel shift). For orientation: Mobility shift assays separate free from complexed probe on a gel.

Protocol for GAL-L-hRXRa: CV-1 African Green Monkey cells were grown in Dulbecco's Modified Eagle's medium supplemented with 10% resin-charcoal stripped fetal bovine serum (FBS), 50 U/ml penicillin G and 50 μg/ml streptomycin sulfate (DMEM-FBS) at 37° C. in 5% CO2. One day prior to transfection, cells were plated to 50-80% confluence using phenol red-free DMEM-FBS. Cells were transiently transfected by lipofection as described in Forman et al., 81 Cell 687 (1995). Liposomes (N-[1-(2,3-dioleoyloxy)propyl]-N,N,N-ammonium methyl sulfate, sold by Boehringer Mannheim under the name DOTAP) were formed according to the manufacturer's instructions. The liposomes contained reporter gene constructs (300 ng/10^5 cells); cytomegalovirus driven expression vectors (25 ng/10^5 cells) were added as indicated along with CMX-Bgal (500 ng/10^5 cells) as an internal control. After 2 hours the liposomes were removed and replaced with fresh media. Cells were incubated for approximately 40 hours with phenol red-free DMEM-FBS containing the indicated compounds. After exposure to the specified ligand, the cells were harvested.
The harvested cells were assayed for the presence of luciferase activity. Cells were lysed in 0.1 M KPO4 (pH 7.8), 1.0% TRITON® X-100, 1.0 mM dithiolthreitol (DTT) and 2 mM ethylenediamine tetracetic acid (EDTA). Luciferase activity was measured by reaction of the cell lysates with luciferin in a reaction buffer comprising: 20 mM tricine, 1.07 mM Mg(CO3)4-Mg(OH)2-5H2O, 2.67 mM MgSO4.7H2O, 0.1 mM EDTA, 0.5 mM Sodium luciferin, 0.15 mg/ml Coenzyme A, 5 mM DTT, and 0.5 mM adenosine triphosphate (ATP). Resulting chemiluminescence was measured in a luminometer. […] All points were assayed in triplicate and varied by less than 15%. Each experiment was repeated three or more times with similar results.
As shown below, in most cases hRXRop was recombinantly coexpressed with one other of the indicated receptor constructs, so as to permit the formation of hetero-or homodimers containing hRXRop.
Expression of the luciferase reporter gene product was detected and quantified as described above.

`C[C@H](CCC(=O)O)[C@H]1CC[C@H]2[C@@H]3[C@H](O)C[C@@H]4C[C@H](O)CC[C@]4(C)[C@H]3CC[C@]12C` [CDCA, chenodeoxycholic acid, reference compound]: at GAL-L-hRXRa, the “Reporter Activity” value amounted to 0.38.

Regarding `CC(C)CCC[C@@H](C)[C@H]1CC[C@H]2[C@@H]3CC=C4C[C@@H](O)CC[C@]4(C)[C@H]3CC[C@]12C` [cholesterol], the “activation of the BAR-RXR complex” value on BAR-RXRα complex is reported as “did not activate”.

In the case of `CC(C)=CCC/C(C)=C/CO` [geraniol], the “activation of the BAR-RXR complex” value at BAR-RXRα complex is listed as “did not activate”.

Turning to `CC(C)=CCCC(C)=CCCC(C)=CC=O` [farnesal], on BAR-RXRα complex, the “activation of the BAR-RXR complex” value is on record as “somewhat less strongly”.

As to `CC(C)=CCCC(C)=CCCC(C)=CC(=O)O` [farnesoic acid], the “activation of the BAR-RXR complex” value on BAR-RXRα complex is listed as “somewhat less strongly”.

As for `CC(C)=CCC/C(C)=C/CC/C(C)=C/CC/C(C)=C/CO` [geranylgeraniol], on BAR-RXRα complex, the “activation of the BAR-RXR complex” value is given as “somewhat less strongly”.

As to `COC(=O)/C=C(\C)CC/C=C(\C)CC[C@H]1OC1(C)C` [JH III, juvenile hormone III], at BAR-RXRα complex, the “activation of the BAR-RXR complex” value is reported as “activated”. On BAR-RXRα complex (either receptor alone), the “activation of BAR/FXR or RXR alone” value was “does not activate”. The “activation of other nuclear hormone receptors” value in data set [1] is recorded as “failed to activate”.

Regarding `CC(C)=CCC/C(C)=C/CC/C(C)=C/CC/C=C(\C)CC/C=C(\C)CCC=C(C)C` [squalene], on BAR-RXRα complex, the “activation of the BAR-RXR complex” value is on record as “did not activate”.

B1: IBABP IR-1 BAR/FXR response element (dsDNA)
DNA 1: CCTTAAGGTGAATAACCTTGGGGCTCC
DNA 2: GGAGCCCCAAGGTTATTCACCTTAAGG
Take B1: in data set [2], the activity is ~200 fold activation.

(Values after patent publication US20030144360A1, “Composition and method for modulating BAR/FXR receptor activity” (Allergan Sales, Inc., priority 2001, published 2003).)
